Measurements reported in US20030073850A1, “4-Imidazole derivatives of benzyl and restricted benzyl sulfonamides, sulfamides, ureas, carbamates, and amides and their use” (priority 1998, published 2003).
Where a name gives a salt, the structure may show the parent alone.

Target: T1, α1b (hamster receptor expressed in mouse fibroblasts) (Mesocricetus auratus, UniProt P18841)
T1 construct: expressed in transfected cells; host or cells: mouse fibroblasts
T1 sequence (P18841 1-515): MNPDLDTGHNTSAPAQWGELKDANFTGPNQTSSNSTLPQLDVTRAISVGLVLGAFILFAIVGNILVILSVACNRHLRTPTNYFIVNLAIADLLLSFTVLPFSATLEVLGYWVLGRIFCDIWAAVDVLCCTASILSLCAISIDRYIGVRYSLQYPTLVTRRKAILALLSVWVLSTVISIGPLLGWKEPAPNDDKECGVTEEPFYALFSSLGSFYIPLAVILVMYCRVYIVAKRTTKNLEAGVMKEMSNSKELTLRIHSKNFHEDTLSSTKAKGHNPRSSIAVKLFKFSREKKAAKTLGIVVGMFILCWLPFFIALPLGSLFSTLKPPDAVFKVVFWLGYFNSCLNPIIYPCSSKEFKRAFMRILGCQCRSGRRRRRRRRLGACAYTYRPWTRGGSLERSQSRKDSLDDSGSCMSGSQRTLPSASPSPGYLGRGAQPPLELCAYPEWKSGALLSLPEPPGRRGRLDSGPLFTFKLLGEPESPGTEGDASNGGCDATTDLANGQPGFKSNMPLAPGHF
Assay: Radioligand binding, [3H]-prazosin, α1b
Settings: hamster receptor expressed in mouse fibroblasts, [3H]-prazosin; read-out: Radioligand Binding Ki α1b (Hamster)
Description: For purposes of discussing a, adrenoceptor subtypes, the IUPHAR convention of using lower case letters to define molecular clones and upper case letters to indicate pharmacologically defined adrenoceptors has been followed. Compounds of formula I were evaluated in radioligand binding assays specific for α1A (rat submaxillary gland), α1b (hamster receptor expressed in mouse fibroblasts) and α1d (rat receptor expressed in mouse fibroblasts) using [^3H]-prazosin as the radioligand as described in Knepper, et al. J. Pharm.

Row | Compound | Ki [µM]
1 | N-[5,6,7,8-tetrahydro-5-(1H-imidazol-4-yl)-1-naphthalenyl]-2-methylethanesulfonamide, Maleate [Example 18] | 10
2 | CCn1cnc(C2CCCc3c2ccc(O)c3NS(C)(=O)=O)c1 (stereo not shown) [Example 6, N-[5-(1-ethyl-1H-imidazol-4-yl)-2-hydroxy-5,6,7,8-tetrahydro-1-naphthalenyl]methanesulfonamide, Hydrochloride] | 100
3 | O=S(=O)(Nc1cccc2c1CCCC2c1c[nH]cn1)C1CC1 (stereo not shown) [Example 27, N-[5,6,7,8-tetrahydro-(1H-imidazol-4-yl)-1-naphthalenyl]cyclopropanesulfonamide, Maleate] | 10
4 | CCCn1cnc(C2CCCc3c2ccc(O)c3NS(C)(=O)=O)c1.Cl (stereo not shown) [Example 7, N-[2-hydroxy-5-(1-propyl-1H-imidazol-4-yl)-5,6,7,8-tetrahydro-1-naphthalenyl]methanesulfonamide, Hydrochloride] | 100
5 | O=C(O)/C=C\C(=O)O.O=S(=O)(CC(F)(F)F)Nc1cccc2c1CCCC2c1c[nH]cn1 (stereo not shown) [Example 20, N-[5,6,7,8-tetrahydro-5-(1H-imidazol-4-yl)-1-naphthalenyl]-2,2,2-trifluoroethanesulfonamide, Maleate] | 10
6 | CCS(=O)(=O)Nc1ccc(Cl)c2c1CCCC2c1c[nH]cn1.O=C(O)/C=C\C(=O)O (stereo not shown) [Example 42, N-[4-chloro-5-(1H-imidazol-4-yl)-5,6,7,8-tetrahydro-1-naphthalenyl]ethanesulfonamide, Maleate] | 10
7 | CS(=O)(=O)Nc1cccc2c1CCCCC2c1c[nH]cn1.O=C(O)/C=C\C(=O)O (stereo not shown) [Example 38, N-[5-(1H-imidazol-4-yl)-6,7,8,9-tetrahydro-5H-benzo[a]cyclohepten-1-yl]methanesulfonamide, Maleate] | 10
8 | Cc1ccc(NS(C)(=O)=O)c2c1C(c1c[nH]cn1)CCC2.O=C(O)/C=C\C(=O)O (stereo not shown) [Example 23, N-[5,6,7,8-tetrahydro-5-(1H-imidazol-4-yl)-4-methyl-1-naphthalenyl]methanesulfonamide, Maleate] | 10
9 | CS(=O)(=O)Nc1ccc(Cl)c2c1CCCC2c1c[nH]cn1.O=C(O)/C=C\C(=O)O (stereo not shown) [Example 43, N-[4-chloro-5-(1H-imidazol-4-yl)-5,6,7,8-tetrahydro-1-naphthalenyl]methanesulfonamide, Maleate] | 10

System: not given
Assay: not given
Settings: not given

Row | Compound | melting point [°C]
10 | CS(=O)(=O)Nc1cc(Cc2c[nH]cn2)ccc1O.Cl | 167 to 169
11 | CC(c1cccc(NS(C)(=O)=O)c1)c1c[nH]cn1.Cl (stereo not shown) | 195 to 196
12 | CCS(=O)(=O)Nc1cc(Cc2c[nH]cn2)ccc1Cl | 159 to 160
13 | CCS(=O)(=O)Nc1cccc2c1CCCC2c1c[nH]cn1.O=C(O)/C=C\C(=O)O (stereo not shown) [Example 12, N-[5-(1H-imidazol-4-yl)-5,6,7,8-tetrahydro-1-naphthalenyl]ethanesulfonamide Maleate] | 129 to 132
14 | CCS(=O)(=O)Nc1cccc(C(C)c2c[nH]cn2)c1.O=C(O)/C=C\C(=O)O (stereo not shown) | 114 to 119
15 | CCCn1cnc(C2CCCc3c2ccc(O)c3NS(C)(=O)=O)c1.Cl (stereo not shown) [Example 7, N-[2-hydroxy-5-(1-propyl-1H-imidazol-4-yl)-5,6,7,8-tetrahydro-1-naphthalenyl]methanesulfonamide, Hydrochloride] | 128 to 133
16 | O=C(O)/C=C\C(=O)O.O=S(=O)(CC(F)(F)F)Nc1cccc2c1CCCC2c1c[nH]cn1 (stereo not shown) [Example 20, N-[5,6,7,8-tetrahydro-5-(1H-imidazol-4-yl)-1-naphthalenyl]-2,2,2-trifluoroethanesulfonamide, Maleate] | 138 to 140
17 | CCS(=O)(=O)Nc1cccc(/C(=C/OC)c2c[nH]cn2)c1.O=C(O)/C=C\C(=O)O [Example 46, N-{3-[(Z)-1-(1H-imidazol-4-yl)-2-methoxyethenyl]phenyl}ethanesulfonamide, Maleate] | 146 to 148
18 | CS(=O)(=O)Nc1cccc2c1CCC2c1c[nH]cn1.O=C(O)/C=C\C(=O)O (stereo not shown) [Example 22, N-[1-(1H-imidazol-4-yl)-2,3-dihydro-1H-inden-4-yl]methanesulfonamide, Maleate] | 168 to 169
19 | CS(=O)(=O)Nc1cccc2c1OCCC2c1c[nH]cn1.O=C(O)/C=C\C(=O)O (stereo not shown) [Example 19, N-[4-(1H-imidazol-4-yl)-3,4-dihydro-2H-chromen-8-yl]methanesulfonamide, Maleate] | 172 to 174
20 | CS(=O)(=O)Nc1cccc2c1CCC=C2c1c[nH]cn1.O=C(O)/C=C\C(=O)O [Example 47, N-[5-(1H-imidazol-4-yl)-7,8-dihydro-1-naphthalenyl]methanesulfonamide, Maleate] | 161 to 165
21 | CCS(=O)(=O)Nc1ccc(Cl)c2c1CCCC2c1c[nH]cn1.O=C(O)/C=C\C(=O)O (stereo not shown) [Example 42, N-[4-chloro-5-(1H-imidazol-4-yl)-5,6,7,8-tetrahydro-1-naphthalenyl]ethanesulfonamide, Maleate] | 151 to 155
22 | CC(c1cccc(NS(C)(=O)=O)c1)c1c[nH]cn1.O=C(O)/C=C\C(=O)O (stereo not shown) | 135 to 136
23 | CS(=O)(=O)Nc1cccc2c1CCCCC2c1c[nH]cn1.O=C(O)/C=C\C(=O)O (stereo not shown) [Example 38, N-[5-(1H-imidazol-4-yl)-6,7,8,9-tetrahydro-5H-benzo[a]cyclohepten-1-yl]methanesulfonamide, Maleate] | 162 to 164
24 | Cc1ccc(NS(C)(=O)=O)c2c1C(c1c[nH]cn1)CCC2.O=C(O)/C=C\C(=O)O (stereo not shown) [Example 23, N-[5,6,7,8-tetrahydro-5-(1H-imidazol-4-yl)-4-methyl-1-naphthalenyl]methanesulfonamide, Maleate] | 192 to 195
25 | C=C(c1cccc(NS(C)(=O)=O)c1)c1c[nH]cn1 (as salt: maleic acid salt) [Example 92, N-{3-[1-(1H-imidazol-4-yl)vinyl]phenyl}methanesulfonamide] | 167 to 170
26 | CCS(=O)(=O)Nc1cccc(Cc2c[nH]cn2)c1O.O=C(O)/C=C\C(=O)O | 155 to 157
27 | Cc1c(Cc2c[nH]cn2)cccc1NS(C)(=O)=O.O=C(O)/C=C\C(=O)O | 143 to 144
28 | CS(=O)(=O)Nc1ccc(F)c(Cc2c[nH]cn2)c1.O=C(O)/C=C\C(=O)O | 146 to 147
29 | O=C(O)/C=C\C(=O)O.O=S(=O)(CC(F)(F)F)Nc1cccc(Cc2c[nH]cn2)c1 | 161 to 162
30 | CS(=O)(=O)Nc1ccc(Cl)c2c1CCCC2c1c[nH]cn1.O=C(O)/C=C\C(=O)O (stereo not shown) [Example 43, N-[4-chloro-5-(1H-imidazol-4-yl)-5,6,7,8-tetrahydro-1-naphthalenyl]methanesulfonamide, Maleate] | 175 to 178

Results, then the compound that gave them:

Row | melting point [°C] | Compound
31 | 197 to 199 | Cc1cc(Cc2c[nH]cn2)c(C)c(NS(C)(=O)=O)c1
32 | 140 to 152 | CCS(=O)(=O)Nc1cc(Cc2c[nH]cn2)ccc1C
33 | 120 to 124 | CCC(O)(c1cccc(NS(=O)(=O)CC)c1)c1c[nH]cn1 (stereo not shown) [Example 55, N-[3-(1-hydroxy-1-(1H-imidazol-4-yl)propyl)phenyl]ethanesulfonamide]
34 | 260 | Cl.Cn1cncc1C1CCCc2c1ccc(O)c2NS(C)(=O)=O (stereo not shown) [Example 4, N-[2-hydroxy-5-(1-methyl-1H-imidazol-5-yl)-5,6,7,8-tetrahydro-1-naphthalenyl]methanesulfonamide, Hydrochloride]
35 | 185 to 186 | CCS(=O)(=O)Nc1cccc(Cc2c[nH]cn2)c1OC
36 | 182 to 184 | CCS(=O)(=O)Nc1cccc(Cc2c[nH]cn2)c1Cl
37 | 233 to 235 | Cc1nc(C2CCCc3c2ccc(O)c3NS(C)(=O)=O)c[nH]1.Cl (stereo not shown) [Example 3, N-[2-hydroxy-5-(2-methyl-1H-imidazol-4-yl)-5,6,7,8-tetrahydro-1-naphthalenyl]methanesulfonamide, hydrochloride]
38 | 194 to 196 | CCS(=O)(=O)Nc1ccc(C)c(Cc2c[nH]cn2)c1
39 | 173 to 176 | O=S(=O)(CC(F)(F)F)Nc1cccc2c1OCCC2c1c[nH]cn1 (single isomer, unassigned) (as salt: maleic acid salt) [Example 88, 2,2,2-trifluoro-N-[4-(1H-imidazol-4-yl)-3,4-dihydro-2H-chromen-8-yl]ethanesulfonamide]
40 | 182 to 184 | CCS(=O)(=O)Nc1cc(Cl)cc(Cc2c[nH]cn2)c1Cl
41 | 167 to 169 | CCS(=O)(=O)Nc1cc(C)cc(Cc2c[nH]cn2)c1C
42 | 118 to 123 | CS(=O)(=O)Nc1cccc2c1CCC[C@H]2c1c[nH]cn1 [Example 9, (+)-N-[(5R)-5-(1H-imidazol-4-yl)-5,6,7,8-tetrahydro-1-naphthalenyl]methanesulfonamide]
43 | 135 to 137 | CS(=O)(=O)Nc1c(O)ccc2c1CCCC2c1c[nH]cn1.Cl (stereo not shown) [Example 2, N-[2-hydroxy-5-(1H-imidazol-4-yl)-5,6,7,8-tetrahydro-1-naphthalenyl]methanesulfonamide, Hydrochloride]
44 | 202 to 204 | CCS(=O)(=O)Nc1cc(Br)cc(Cc2c[nH]cn2)c1C
45 | 256 to 258 | Cl.Cn1cnc(C2CCCc3c2ccc(O)c3NS(C)(=O)=O)c1 (stereo not shown) [Example 5, N-[2-hydroxy-5-(1-methyl-1H-imidazol-4-yl)-5,6,7,8-tetrahydro-1-naphthalenyl]methanesulfonamide Hydrochloride]
46 | 194 to 196 | CCS(=O)(=O)Nc1cc(Br)cc(Cc2c[nH]cn2)c1
47 | 209 to 211 | COc1ccc2c(c1NS(C)(=O)=O)CCCC2c1c[nH]cn1.Cl (stereo not shown) [Example 1, N-[5-(1H-imidazol-4-yl)-2-methoxy-5,6,7,8-tetrahydro-1-naphthalenyl]methanesulfonamide hydrochloride]
48 | 196 to 199 | CCS(=O)(=O)Nc1c(C)ccc2c1CCCC2c1c[nH]cn1 (stereo not shown)
49 | 122 to 123 | CCS(=O)(=O)Nc1cc(Cc2c[nH]cn2)ccc1F
